Activity calls are given as the source filed them. No rule for the calls is given here. Bounds are passed on as bounds.

Test system in the first assay: not listed separately
The assay is described as follows: rescue of alpha-synuclein yeast toxicity, dose response, S. cerevisiae, plate reader, cherry-pick (AID 602273). The conditions noted are these: S. cerevisiae alpha-synuclein toxicity rescue, OD600 growth, 24 h; at 12 µM (top of the series).
As for `O=C(NC1C(=O)NNC1c1ccccc1)c1ccccc1` (stereo not drawn), the growth rescue activity is 8.13% (inactive).

Staying with this assay, now noted: S. cerevisiae alpha-synuclein toxicity rescue, OD600 growth, 24 h; at 26 µM (top of the series).
Regarding `CCOC(=O)c1c(C)c(C(=O)Nc2ccc3c(c2)OCO3)c(C)n1C`, the growth rescue activity was 2.62% (inactive).
On the same count and under the same terms, as for `O=c1c2ccccc2[nH]c(=S)n1CCC1=CCCCC1`, the figure is 21.3% (inactive).
Same read-out and setting: the value for `CCN1C(=O)CC(N2CCN(c3ccc(C(=O)c4ccccc4)cc3)CC2)C1=O` (stereo not drawn) was -0.853% (inactive); that for `O=C(NCCN1Cc2ccccc2C1=O)c1cccs1` was -6.05% (inactive); that for `Cc1ccc(/C=C2\Oc3cc(OC(=O)N4CCOCC4)ccc3C2=O)cc1` was -7.43% (inactive).
Still for that read-out and setting: the value for `O=C1C2CC=CCC2C(=O)N1c1ccc(NCCc2ccccc2)c([N+](=O)[O-])c1` (stereo not drawn) was 11.8% (inactive).
For the compound `Cc1ccc(CN2CCN(CC(C)C)C(CCO)C2)s1` (stereo not drawn), the growth rescue activity is -1.18% (inactive).
The same measure, in the same setting: as for `Cc1nc(SCCOc2ccc(F)cc2)c2ccccc2n1`, the figure is -1.07% (inactive); as for `CC(=O)N1N=C(c2ccccc2)CC1c1ccccc1[N+](=O)[O-]` (stereo not drawn), 2.51% (inactive).
`COC(=O)C(C)Sc1ncnc2c1nnn2-c1ccc(F)cc1` (stereo not drawn): the growth rescue activity is -1.99% (inactive).
Turning to `COc1ccc2cc(/C=C/C(=O)N3CCN(CC(=O)N4CCCCCC4)CC3)ccc2c1`, the growth rescue activity is -2.63% (inactive).
For `Cc1ccc(-n2cc(CNCCN3CCOC3=O)c(-c3cccc(C)c3)n2)cc1`, the growth rescue activity is 0.352% (inactive).
On to `O=c1[nH][nH]c(-c2ccccc2O)c1C(C[N+](=O)[O-])c1ccccc1` (stereo not drawn), for which the growth rescue activity is 0.55% (inactive).
On to `O=C(Nc1ccccc1C(=O)OCC(=O)c1c[nH]c2ccccc12)c1ccco1`, for which the growth rescue activity is 5.29% (inactive).
Still for that read-out and setting: as for `C[C@H](NC(=O)[C@@H]1CSC2c3ccccc3C(=O)N21)C(=O)NCCc1ccccc1` (stereo partly drawn), the figure is -5.08% (inactive); as for `O=C(OCc1csc(-c2ccccc2)n1)c1cccs1`, 0.967% (inactive); as for `COc1ccc(C(=O)Cn2c(C(=O)/C=C/c3ccccc3)nc3ccccc32)cc1`, 1.68% (inactive).
On to `CC(C)(C)c1ccc(COc2ccsc2C(=O)O)cc1`, for which the growth rescue activity was -21.6% (inactive).
The same measure, in the same setting: as for `COc1ccc(C(c2c(O)ccc3ccccc23)N2CCOCC2)c(OC)c1` (stereo not drawn), the figure is -24.5% (inactive); as for `CCOC(=O)C1=NN(C(=O)c2ccccc2)C(O)(c2ccc(C)cc2)C1` (stereo not drawn), 10.9% (inactive); as for `O=C1S/C(=C\c2ccc(N3CCOCC3)o2)C(=O)N1Cc1c(F)cccc1Cl`, -0.523% (inactive).
Still for that read-out and setting: as for `O=C1NC(=S)S/C1=C/c1ccc(OC(=O)c2ccco2)cc1`, the figure is 9.87% (inactive).
Same read-out and setting: the value for `CCn1c(SCC(=O)c2ccc(Cl)cc2)nnc1-c1ccoc1C` was 2.33% (inactive).
For `Cc1cc(-c2nnc(CCC(=O)N(C)Cc3cccc4ccccc34)o2)no1`, the growth rescue activity is 8.5% (inactive).
Still for that read-out and setting: the value for `Cc1c(/C=N/NC(=O)c2ccc(Br)o2)cnn1C` was -2.43% (inactive); that for `CC(=O)Cc1cc(O)c2ccccc2c1OC(=O)c1ccccc1` was -0.443% (inactive); that for `Cc1cc(C)nc(S/C=C/C(=O)c2ccccc2F)n1` was 1.06% (inactive).
On the same count and under the same terms, as for `O=C(CC12CCC(CC1)C2)NCc1ccc2c(c1)OCO2`, the figure is 2.83% (inactive); as for `Nc1ccc(Sc2cnn(-c3ccccc3)c(=O)c2Cl)cc1`, 1.77% (inactive); as for `COC(=O)C1CCN(C(=O)COC(=O)c2ccc(OC)c(S(=O)(=O)N3CCCc4ccccc43)c2)CC1`, -1.07% (inactive).
The same measure, in the same setting: the value for `C/C(Cn1cnc([N+](=O)[O-])n1)=N\NC(=O)c1ccccc1F` was -2.85% (inactive); that for `CN(Cc1nnc(-c2ccc(F)cc2)o1)c1ccccc1` was 8.17% (inactive).
For `CCC1(C)N=C(N)Nc2nc3cc(C)c(C)cc3n21` (stereo not drawn), the growth rescue activity was -2.62% (inactive).
Same read-out and setting: the value for `Cn1c(=O)c(/C=C/c2ccc(F)cc2)nc2ccccc21` was 8.65% (inactive); that for `Cc1ccc(N2C(=O)SC(N(CC(=O)O)c3ccc(C)cc3)C2=O)cc1` (stereo not drawn) was -2.3% (inactive).
Regarding `c1ccc(N2CC3CCc4ccccc4C3=N2)cc1` (stereo not drawn), the growth rescue activity was 11.6% (inactive).
`Cc1[nH]c2ccccc2c1/C=C(\C#N)C(=O)NCC1CCCO1` (stereo not drawn): the growth rescue activity is 4.73% (inactive).
`Cc1ccc(C(=O)CNc2ccc(Cl)cc2)cc1`: the growth rescue activity was 5.52% (inactive).
`CC1(C)CC(=O)C(=Cc2cn(-c3ccccc3)nc2-c2ccccc2)C(=O)C1`: the growth rescue activity was 1.64% (inactive).
Regarding `Cc1ccc(O)c(NC(=O)c2onc(C)c2Cl)c1`, the growth rescue activity was 6.44% (inactive).
Same read-out and setting: the value for `CN(CCC1CCCCO1)C(=O)CCc1nnc(CCCCc2ccccc2)o1` (stereo not drawn) was 1.7% (inactive); that for `CCCCC(=O)OCC(=O)c1[nH]c(C)c(C(=O)OCC)c1C` was 2.65% (inactive); that for `O=C(CSc1nnc(-c2c[nH]c3ccccc23)n1-c1ccc(F)cc1)NCc1ccco1` was 0.096% (inactive).
Turning to `Cc1csc2nc(CCNS(=O)(=O)c3cccs3)cn12`, the growth rescue activity was 3.48% (inactive).
As for `CC(C)CC(=O)Nc1ccc(N2CCOCC2)cc1`, the growth rescue activity is 3.83% (inactive).
The same measure, in the same setting: the value for `CCOC(=O)Nc1ccc(C(=O)Oc2ccccc2)c(O)c1` was -4.86% (inactive); that for `CN(Cc1ccccc1)C(=O)c1cc(-c2ccc(Br)cc2)on1` was -17.2% (inactive); that for `Cc1ccc(CNC(=O)CSc2ccsc2[N+](=O)[O-])cc1` was 2.48% (inactive).
On the same count and under the same terms, as for `COc1ccc(/C=C2/SC(=O)N(CCNC(=O)C3COc4ccccc4O3)C2=O)cc1` (stereo not drawn), the figure is 5.56% (inactive); as for `N#Cc1ccc(OCCN2CCc3ccccc3C2)cc1`, 4.6% (inactive).
As for `O=c1[nH]n(CC2COC3(CCCCC3)O2)c(=O)c2ccccc12` (stereo not drawn), the growth rescue activity was -3.22% (inactive).
Still for that read-out and setting: as for `O=C(Cc1cccs1)NCc1ccccc1Br`, the figure is -5.14% (inactive); as for `CCOC(=S)SCC(=O)Nc1nc(C)c(C)s1`, 0.308% (inactive); as for `O=c1[nH]c2ccccc2n1CCC1CCCCC1`, 8.15% (inactive).
The same measure, in the same setting: the value for `CC(=O)c1ccc(NC(=O)CCCN2C(=O)/C(=C/C(C)=C/c3ccccc3)SC2=S)cc1` was -5.11% (inactive); that for `O=C1C2CC=CCC2C(=O)N1Cc1nnc(-c2ccc(Cl)cc2)o1` (stereo not drawn) was -2.43% (inactive).
For the compound `COc1ccc2c(c1OC)C(=O)OC2Nc1nc(-c2ccccc2)cs1` (stereo not drawn), the growth rescue activity is 3.17% (inactive).
On the same count and under the same terms, the value for `CCSc1nnc(NC(=O)c2cccnc2Cl)s1` was -4.76% (inactive); that for `Oc1[nH]c(N=C2N=c3ccccc3=N2)c2ccccc12` was -26.4% (inactive); that for `COc1ccc(OCc2nnnn2-c2ccccc2)cc1` was -3.39% (inactive).

The test system of the next assay is S. cerevisiae alpha-synuclein toxicity rescue, OD600 growth, 24 h. Described as above.
Conditions: not given
`COc1cccc(NC(=S)NC(=O)c2c(Cl)c(C)nn2C)c1`: the AC40 is > 26 µM (inactive).
On the same count and under the same terms, as for `COc1cccc(CNc2ccc(Br)cn2)c1O`, the figure is > 26 µM (inactive); as for `Cc1cc(-c2nc3ncccc3o2)ccc1NC(=S)NC(=O)C(C)C`, > 26 µM (inactive); as for `O=C(CSc1nnc(-c2c[nH]c3ccccc23)o1)c1ccccc1`, > 26 µM (inactive).
For `CSc1sc(C(=O)Nc2ccc(F)cc2F)c2c1C=CCC2`, the AC40 was > 26 µM (inactive).
Still for that read-out and setting: the value for `Cc1ccc2oc(C(=O)N3CCC(O)(c4cccc(C(F)(F)F)c4)CC3)c(C)c2c1` was > 26 µM (inactive); that for `Cc1ccccc1CSc1nsc(N)n1` was 14.5 µM; that for `CN1CCN(Cc2c(O)ccc3cc(Br)ccc23)CC1` was > 26 µM (inactive).
The same measure, in the same setting: the value for `CCOC(=O)c1nnsc1Nc1ccc(C)c(C)c1` was > 26 µM (inactive); that for `Fc1cc(NCc2ccccc2)nc(NCc2ccccc2)n1` was > 26 µM (inactive).
The same measure, in the same setting: the value for `Clc1ccc(SCc2csc(N3CCOCC3)n2)cc1` was > 26 µM (inactive); that for `CC(C)c1ccc(C2NC(=O)c3ccccc3O2)cc1` (stereo not drawn) was 12.1 µM; that for `O=C1C=C(c2ccccc2)CC(/C=C/c2ccccc2)C1` (stereo not drawn) was > 12 µM (inactive).
As to `CC1(C)CC(=O)C=C(NC2=CC3OC(c4ccccc4)OCC3OC2=O)C1` (stereo not drawn), the AC40 was > 26 µM (inactive).
For `O=c1c2sccc2nc(SCc2ccc([N+](=O)[O-])cc2)n1Cc1ccccn1`, the AC40 is > 26 µM (inactive).
Still for that read-out and setting: as for `O=[N+]([O-])c1cccc(-c2ncc3ccccn23)c1`, the figure is > 26 µM (inactive).
On the same count and under the same terms, the value for `O=c1[nH]c2ccccc2c2cn(-c3ccccc3)nc12` was 23.4 µM.

Values taken from PubChem BioAssay AID602273 (Broad Institute, 2012).
